Experimental data taken from PubChem BioAssay (NCI).
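Results reflect a 48-hour exposure of cells in 96-well plates to compound at five concentrations. The concentration for 50% growth inhibition is given as GI50. At the TGI there is no net growth.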

How the values were obtained:
Assay in all cases: NCI-60 cell line screen, 48 h
UACC-62 melanoma = system: UACC-62 melanoma
A498 renal = system: A498 renal
M14 melanoma = system: M14 melanoma
UO-31 renal = system: UO-31 renal
T-47D breast = system: T-47D breast
LOX IMVI melanoma = system: LOX IMVI melanoma
HCT-116 colon = system: HCT-116 colon
HCT-15 colon = system: HCT-15 colon
HL-60(TB) leukemia = system: HL-60(TB) leukemia
TK-10 renal = system: TK-10 renal

SMILES	TGI (UACC-62 melanoma) [µM]	TGI (A498 renal) [µM]	TGI (M14 melanoma) [µM]	TGI (UO-31 renal) [µM]	TGI (T-47D breast) [µM]	TGI (LOX IMVI melanoma) [µM]	TGI (HCT-116 colon) [µM]	TGI (HCT-15 colon) [µM]	TGI (HL-60(TB) leukemia) [µM]	TGI (TK-10 renal) [µM]	GI50 (UACC-62 melanoma) [µM]	GI50 (A498 renal) [µM]	GI50 (M14 melanoma) [µM]	GI50 (UO-31 renal) [µM]	GI50 (T-47D breast) [µM]	GI50 (LOX IMVI melanoma) [µM]	GI50 (HCT-116 colon) [µM]	GI50 (HCT-15 colon) [µM]	GI50 (HL-60(TB) leukemia) [µM]	GI50 (TK-10 renal) [µM]
COc1ccc(S(=O)(=O)O)cc1NS(=O)(=O)c1ccc(C)cc1	> 100	> 100	> 100	> 100	> 100	> 100	> 100	> 100	> 100	> 100	–	–	–	–	–	–	–	–	–	–
CC(C)[C@@H](C(=O)O[C@@H]1/C=C/C(=O)O[C@@H](C)CCC/C=C/[C@@H]2C[C@H](O)C[C@H]21)[N+](C)(C)C	> 100	> 100	> 100	> 100	> 100	> 100	> 100	> 100	> 100	> 100	> 100	> 100	> 100	> 100	> 100	> 100	> 100	> 100	> 100	> 100
COc1cc2c(cc1OCCCCCCNC(=O)c1cc3ccccc3[nH]1)N=CC1CCCN1C2=O (stereo not given)	> 100	64.2	> 100	> 100	> 100	> 100	> 100	> 100	> 100	93.6	39.5	26.3	65.5	33.9	15.4	31.8	45.6	32.1	41.2	20.7
Nc1c(C(=O)Nc2cccc3ccccc23)sc2nc3c(cc12)CCCC3	> 100	7.78	> 100	> 100	90.5	> 100	> 100	> 100	0.802	> 100	0.716	0.366	0.464	3.47	0.44	1.75	0.8	0.565	0.233	14.6
c1ccc(Cn2cc3c(c2)-c2oncc2CC3)cc1	97.3	> 92.1	> 100	97.1	> 100	> 57.9	> 100	> 100	0.939	> 71.5	0.723	3.43	0.528	4.23	2.25	1.66	0.408	0.863	0.274	2.98
O=C(Cc1ccccc1)Nc1nnc(CCSCCc2nnc(NC(=O)Cc3ccccc3)s2)s1	> 100	31.9	> 100	> 100	> 100	11.1	> 100	> 100	65.4	> 100	19.2	0.696	12.6	81.8	8.13	1.72	59.8	> 100	4.26	35.6
